Data as given in patent US20250320254A1, “Compositions and Methods for Modulating Circulating Factors” (Flagship Pioneering Innovations VII, LLC, priority 2022, published 2025).
No end group written: not given here.

System: human primary hepatocytes
Test: LDL uptake assay (BODIPY-labelled LDL, high content imaging)
Assay type: cell-based
Details: 5 uM concentration, 4 h
Procedure: The effects of putative cholesterol lowering peptides was assessed using LDL uptake assays in primary human hepatocytes from a pool of 10 healthy donors. Hepatocytes were treated with peptides as well as LDL-labelled BODIPY for 4 h. Cells were then fixed, permeabilized and imaged on an Opera Phenix high content imaging platform. LDL uptake was determined using BODIPY stain intensity.
Human primary hepatocytes were seeded into 96-well PhenoVue plates at 37K/well density and recovered overnight. The next say, hepatocytes were treated with 5 uM peptide or null control (DMSO) as well as a BODIPY-labelled LDL (Invitrogen™ Image-iT™ Low Density Lipoprotein Uptake Kit, Bodipy FL, I34359). This assay is designed to specifically detect binding and uptake of LDL through the LDL receptor internalization pathway, allowing maximum control and flexibility in experimental design. Two controls were built into the system, unlabeled LDL and heparin. Unlabeled LDL provides an optional pre-treatment to occlude cell surface receptors in advance of probing with the labeled construct, while heparin is provided as an additional control to chelate the LDL in the solution phase outside of the cells, thus preventing binding and uptake of the labeled LDL. Metformin, a type 2 diabetes drug with cholesterol lowering effects, was used as a positive control for increased LDL uptake (FIG. 1). Following peptide, control, and LDL-BODIPY treatment, cells were incubated for 4 h in a 37 C incubator with 5% CO2. Following incubation, cells were fixed with 4% paraformaldehyde for 15 min. Cells were then permeabilized and stained with DAPI to visualize nuclei. Wells were then washed with HBSS and imaged using a Perkin Elmer Opera Phenix high content imaging platform (fluorescence) at 20× magnification with 9 fields per well. BODIPY spot intensity was quantified using the Harmony image analysis software.

Row | Sequence | LDL uptake in hepatocytes
1 | LVVRWAVLVFRSSTAALPRAAEAARRSEKWPKTSALGRRS [SEQ ID NO: 26888] | increasing LDL uptake
2 | MMLPLWTFLERAMLLLISEVANRFKWSNGYTWKMPKA [SEQ ID NO: 36277] | increasing LDL uptake
3 | MTAAVSLTRSPAISASCAASRSASPWAWPWTWF [SEQ ID NO: 75353] | increasing LDL uptake
